Measured values from ChEMBL document CHEMBL5096184, “Structure activity relationship in β-carboline derived anti-malarial agents” (Eur J Med Chem, 2021).
In brackets after ≈: the same amount, converted by molar mass. Blank lines part the entries; values can stand above or below the compound they belong to.

What was measured:
[1] = tested on: Plasmodium falciparum; experiment: Antiplasmodial activity against chloroquine sensitive Plasmodium falciparum W2/Indochina; format: functional, organism-based; details: Plasmodium falciparum, W2/Indochina
[2] = tested on: Plasmodium falciparum; experiment: Antiplasmodial activity against chloroquine sensitive Plasmodium falciparum FCA 20/Ghana; format: functional, organism-based; details: Plasmodium falciparum, FCA 20/Ghana
[3] = tested on: Plasmodium falciparum; experiment: Antiplasmodial activity against chloroquine sensitive Plasmodium falciparum FCB1-R/Colombia; format: functional, organism-based
[4] = tested on: Plasmodium falciparum; experiment: Antimalarial activity against Plasmodium falciparum K1; format: functional, organism-based
[5] = tested on: Plasmodium falciparum; experiment: Antimalarial activity against multi drug resistant Plasmodium falciparum W2; format: functional, organism-based
[6] = Cytotoxicity against human MRC5 cells; format: toxicity, cell-based
[7] = tested on: Plasmodium falciparum; experiment: Antimalarial activity against Plasmodium falciparum W2 (MRA-157) incubated for 72 hrs; format: functional, organism-based
[8] = tested on: Plasmodium falciparum; experiment: Antimalarial activity against chloroquine-resistant Plasmodium falciparum; format: functional, organism-based
[9] = tested on: Plasmodium berghei; experiment: Antiplasmodial activity against Plasmodium berghei assessed as reduction in parasitemia; format: functional, organism-based
[10] = tested on: Plasmodium falciparum; experiment: Antimalarial activity against chloroquine sensitive Plasmodium falciparum 3D7; format: functional, organism-based
[11] = tested on: Plasmodium falciparum; experiment: Antimalarial activity against Plasmodium falciparum D6; format: functional, organism-based
[12] = tested on: Plasmodium falciparum; experiment: Antimalarial activity against chloroquine sensitive Plasmodium falciparum K1; format: functional, organism-based

SMILES: C/C=C1\CN2CCc3c([nH]c4ccccc34)[C@@H]2C[C@@H]1Cc1nccc2c1[nH]c1ccccc12
IC50 [1]: 594 nM
IC50 [2]: 1520 nM
IC50 [3]: < 2000 nM

SMILES: COc1ccc(C2NCCc3c2[nH]c2ccccc32)cc1 (stereo not drawn)
IC50 [5]: 0.7 µM

SMILES: Cn1c2c(c3ccccc31)C[C@@H]1C(=O)N([C@@H]3CCN(Cc4ccccc4)C3)CC(=O)N1[C@@H]2c1ccc2c(c1)OCO2
IC50 [6]: > 64 µM

SMILES: c1ccc(C2NCCc3c2[nH]c2ccccc32)cc1 (stereo not drawn)
IC50 [5]: 8.1 µM

SMILES: c1ccc2c(-c3nccc4c3[nH]c3ccccc34)c[nH]c2c1
IC50 [8]: 14.4 µM

SMILES: COc1ccc2[nH]cc(-c3nccc4c3[nH]c3ccc(OC)cc34)c2c1
IC50 [8]: 4.7 µM

SMILES: CC1NCCc2c1[nH]c1ccc(Cl)cc21 (stereo not drawn)
IC50 [7]: 4.2 µM

SMILES: Clc1ccc(C2NCCc3c2[nH]c2ccccc32)cc1 (stereo not drawn)
IC50 [7]: 4.8 µM

SMILES: COC(=O)c1cc2c3c(c1)c1ccccc1n3C=C(C)OC2
IC50 [10]: > 5 µM

SMILES: Cc1ccc(C)c(C2NCCc3c2[nH]c2ccccc32)c1 (stereo not drawn)
IC50 [5]: 28.9 µM

SMILES: C=C(C)CC1OC(C)=Cn2c3ccccc3c3cc(C(=O)OC)cc1c32 (stereo not drawn)
IC50 [10]: > 5 µM

SMILES: CC[C@H]1CN2CCc3c([nH]c4ccccc34)[C@@H]2C[C@@H]1C[C@H]1NCCc2c1[nH]c1ccccc21
IC50 [1]: 492 nM
IC50 [2]: 118 nM

SMILES: O[C@]12C=C[C@@H]3CCN(CCCCCCCC1)C[C@@]31C[C@@H]3CCCCCCN3[C@H]12
IC50 [11]: 0.082 µg/mL (≈ 0.212 µM)

SMILES: C=C[C@H]1CN2CCc3c([nH]c4ccccc34)[C@@H]2C[C@@H]1CC1c2[nH]c3ccccc3c2CCN1C (stereo partly drawn)
IC50 [1]: 2360 nM
IC50 [2]: 2500 nM
IC50 [3]: 2000 nM

SMILES: CCN(CC)CCCNc1nccc2c1[nH]c1ccc(Cl)cc12
IC50 [4]: 1080 nM

SMILES: COC(=O)c1cc2c3c(c1)c1ccccc1n3C=C(C)OC2CC=C(C)C (stereo not drawn)
IC50 [12]: > 5000 nM
IC50 [10]: > 5 µM

SMILES: CC1NCCc2c1[nH]c1ccc(Br)cc21 (stereo not drawn)
IC50 [7]: 5.7 µM

SMILES: Cc1ccc(C2NCCc3c2[nH]c2ccccc32)c(C)c1 (stereo not drawn)
IC50 [5]: 25.3 µM

SMILES: Oc1ccc2[nH]cc(-c3nccc4c3[nH]c3ccc(O)cc34)c2c1
IC50 [8]: 11 µM

SMILES: C=C(CC1OC(C)=Cn2c3ccccc3c3cc(C(=O)OC)cc1c32)C(=O)OC (stereo not drawn)
IC50 [12]: 720 nM
IC50 [10]: 0.57 µM

SMILES: C=C[C@H]1CN2CCc3c([nH]c4ccc(O)cc34)[C@@H]2C[C@@H]1CC1c2[nH]c3ccccc3c2CCN1C (stereo partly drawn)
IC50 [1]: 160 nM
IC50 [2]: 480 nM

SMILES: [O-][N+]12CCCC/C=C\[C@H]1C[C@]13C[N@@+]4([O-])CCCC/C=C\CC[C@](O)(C=C[C@@H]1CC4)[C@@H]32 (stereo partly drawn)
IC50 [11]: 0.017 µg/mL (≈ 0.041 µM)

Further lines, results first:

IC50 [4]: 2400 nM
SMILES: OCCNc1nccc2c1[nH]c1ccccc12

IC50 [7]: 25.1 µM
SMILES: COc1cccc(C2NCCc3c2[nH]c2ccccc32)c1 (stereo not drawn)

IC50 [7]: 13.6 µM
SMILES: O=[N+]([O-])c1cccc(C2NCCc3c2[nH]c2ccccc32)c1 (stereo not drawn)

IC50 [7]: > 81.1 µM
SMILES: COc1ccc(C2NCCc3c2[nH]c2ccccc32)cc1OC (stereo not drawn)

IC50 [9]: < 5 µg/mL
SMILES: COC(=O)[C@@H]1Cc2c([nH]c3ccccc23)[C@@H](c2ccc3c(c2)OCO3)N1

IC50 [9]: < 5 µg/mL
SMILES: COC(=O)[C@@H]1Cc2c([nH]c3ccccc23)[C@H](c2cccs2)N1

IC50 [4]: 450 nM
SMILES: CN(C)CCCNc1nccc2c1[nH]c1ccccc12

IC50 [4]: 410 nM
SMILES: CCN(CC)C1CCN(c2nccc3c2[nH]c2ccccc23)CC1

IC50 [4]: 640 nM
SMILES: CCN(CC)CCCNc1nccc2c1[nH]c1ccccc12

IC50 [4]: 4590 nM
SMILES: c1ccc2c(c1)[nH]c1c(N3CCOCC3)nccc12

IC50 [4]: 350 nM
SMILES: c1ccc2c(c1)[nH]c1c(N3CCC(N4CCCCCC4)CC3)nccc12

IC50 [4]: 1200 nM
SMILES: c1ccc2c(c1)[nH]c1c(N3CCCCC3)nccc12

IC50 [9]: < 5 µg/mL
SMILES: COC(=O)[C@@H]1Cc2c([nH]c3ccccc23)[C@H](c2cccnc2)N1

IC50 [4]: 450 nM
SMILES: c1ccc2c(c1)[nH]c1c(N3CCC(N4CCCC4)CC3)nccc12

IC50 [4]: 390 nM
SMILES: c1ccc2c(c1)[nH]c1c(N3CCC(N4CCCCC4)CC3)nccc12

IC50 [9]: < 5 µg/mL
SMILES: CCCCCC[C@H]1N[C@H](C(=O)OC)Cc2c1[nH]c1ccccc21

IC50 [4]: 3400 nM
SMILES: OC1CCCN(c2nccc3c2[nH]c2ccccc23)C1 (stereo not drawn)

IC50 [9]: < 5 µg/mL
SMILES: CCCCCC[C@@H]1N[C@H](C(=O)OC)Cc2c1[nH]c1ccccc21

IC50 [9]: < 5 µg/mL
SMILES: COC(=O)[C@@H]1Cc2c([nH]c3ccccc23)[C@@H](c2cccs2)N1

IC50 [4]: 620 nM
SMILES: CN1CCN(c2nccc3c2[nH]c2ccccc23)CC1

IC50 [9]: < 5 µg/mL
SMILES: COC(=O)[C@@H]1Cc2c([nH]c3ccccc23)[C@@H](c2cccnc2)N1

IC50 [9]: < 5 µg/mL
SMILES: COC(=O)[C@@H]1Cc2c([nH]c3ccccc23)[C@H](c2ccc3c(c2)OCO3)N1

IC50 [4]: 360 nM
SMILES: CCN(CC)CCCNc1nccc2c1[nH]c1ccc(F)cc12
